The results in this text go back to patent US20120283207A1, “ANTIBACTERIAL AMINOGLYCOSIDE ANALOGS” (Achaogen, Inc., priority 2009, published 2012).

Values after ≈ are worked out from the molar mass of the structure shown.

Experiment [1] has as its system P. aeruginosa ATCC 27853. Briefly: MIC assay, CLSI broth microdilution, APAE001. The class given is cell-based. The following applies: Pseudomonas aeruginosa; APAE001 is ATCC27853; Mueller Hinton Broth, 35 C, 20 hours. The protocol: (§1) Minimum inhibitory concentrations (MIC) were determined by reference Clinical and Laboratory Standards Institute (CLSI) broth microdilution methods per M7-A7 [2006]. Quality control ranges utilizing E. coli ATCC 25922, P. aeruginosa ATCC 27853 and S. aureus ATCC 29213, and interpretive criteria for comparator agents were as published in CLSI M100-S17 [2007]. Briefly, serial two-fold dilutions of the test compounds were prepared at 2× concentration in Mueller Hinton Broth. The compound dilutions were mixed in 96-well assay plates in a 1:1 ratio with bacterial inoculum. The inoculum was prepared by suspension of a colony from an agar plate that was prepared the previous day. Bacteria were suspended in sterile saline and added to each assay plate to obtain a final concentration of 5×10^5 CFU/mL. The plates were incubated at 35 C for 20 hours in ambient air.

Experiment [2] relates to E. coli ATCC 25922. As to the kind of experiment: MIC assay, CLSI broth microdilution, AECO001. The class given is cell-based. The settings on record: Escherichia coli; AECO001 is ATCC25922; Mueller Hinton Broth, 35 C, 20 hours. On the procedure: as §1

On to `NCC1=CC[C@@H](N)[C@@H](O[C@H]2[C@H](O[C@@H]3O[C@H](CO)[C@@H](O[C@H]4OC(CN)[C@@H](O)[C@H](O)[C@H]4N)[C@H]3O)[C@@H](O)[C@H](N)C[C@@H]2N)O1` (stereo partly shown) [1/10, 4′,5′-dehydro-3′-deoxy-neomycin], for which the minimal inhibitory concentration (MIC) in experiment [1] is at most 1 µg/mL; in experiment [2], 1 to 16 µg/mL (≈ 1.72 to 27.6 µM).

For `NCC1O[C@H](O[C@H]2[C@@H](O)[C@H](O[C@@H]3[C@@H](O)[C@H](N)C[C@H](N)[C@H]3O[C@H]3OC(CO)=CC[C@H]3N)O[C@@H]2CO)[C@H](N)[C@@H](O)[C@@H]1O` (stereo partly shown) [2/3, 4′,5′-dehydro-3′-deoxy-paromomycin], the MIC in experiment [1] and in experiment [2] was over 16 µg/mL in each case.

`CNCC1=C[C@H](O)[C@@H](N)[C@@H](O[C@H]2[C@H](O[C@@H]3O[C@H](CO)[C@@H](O[C@H]4OC(CN)[C@@H](O)[C@H](O)[C@H]4N)[C@H]3O)[C@@H](O)[C@H](N)C[C@@H]2N)O1` (stereo partly shown) [3/3, 6′-N-methyl-4′,5′-dehydro-neomycin]: the MIC is at most 1 µg/mL in experiment [1] and 1 to 16 µg/mL (≈ 1.64 to 26.2 µM) in experiment [2].

In the case of `CNCC1=CC[C@@H](N)[C@@H](O[C@H]2[C@H](O[C@@H]3O[C@H](CO)[C@@H](O[C@H]4OC(CN)[C@@H](O)[C@H](O)[C@H]4N)[C@H]3O)[C@@H](O)[C@H](N)C[C@@H]2N)O1` (stereo partly shown) [4/3, 6′-N-methyl-4′,5′-dehydro-3′-deoxy-neomycin], the MIC in experiment [1] and in experiment [2] was 1 to 16 µg/mL (≈ 1.68 to 26.9 µM) throughout.

On to `NCC[C@H](O)C(=O)N[C@@H]1C[C@H](N)[C@@H](O[C@H]2OC(CN)=CC[C@H]2N)[C@H](O[C@@H]2O[C@H](CO)[C@@H](O[C@H]3O[C@@H](CN)[C@@H](O)[C@H](O)[C@H]3N)[C@H]2O)[C@H]1O` [5/6, 1-(2(S)-hydroxy-4-amino-butyryl)-4′,5′-dehydro-3′-deoxy-neomycin], for which the MIC in experiment [1] and in experiment [2] was at most 1 µg/mL in each case.
